Values of other authors as cited in patent publication US8608968B2, “Compositions for bioremediation and methods for using” (Carus Corporation, priority 2006, dated 2013).

Details: dimensionless

Row | Structure (SMILES) | Henry's Law Constant
1 | Cl/C=C\Cl [cis-1,2-dichloroethene] | 0.31
2 | C [Methane] | 27.2
3 | C=CCl [Vinyl chloride] | 0.95
4 | ClC=C(Cl)Cl [Trichloroethene] | 0.48
5 | C=C [Ethene] | 8.76
